Measured values taken from a melting point compilation (Tetko et al.; mined from patent text by program, amines drawn as free bases though some values may be those of a salt).
Residues, ends and D or L forms follow the SMILES beside them. *: point of attachment. Tos = Cc1ccc(S(=O)(=O)*)cc1

Row | SMILES | melting point
1 | Nc1c(Cl)cc(C(O)CNCCCCCC(=O)OCCOc2ccccc2)cc1Cl (stereo not given) | 46 to 47 °C
2 | CC(C)Cn1c(CNC(=O)OC(C)(C)C)c(-c2ccc(Cl)cc2)c2cc(C(=O)O)ccc2c1=O | 226 to 227 °C
3 | Cc1cc(C)c2c(O)c(O)c(O)nc2c1 | 280 to 282 °C
4 | COC(=O)c1nc(-c2ccccn2)n2c1CN=C(c1ccccc1Cl)c1cc(Cl)ccc1-2 | 282 to 285 °C
5 | CCCc1ccc(OC)c2c(C)c(C(=O)OCC)oc12 | 43 to 46 °C
6 | Cc1ccccc1P1(=O)c2ccccc2CN1c1ccccc1 (stereo not given) | 181 to 183 °C
7 | NC(=O)CNC(=O)c1cccc(-c2cc(F)cc3cc(Cc4cccc(C(F)(F)F)c4)sc23)c1 | 71 to 73 °C
8 | C[C@@](O)(CO)COc1cccc(-c2noc3ccsc23)c1 | 97 to 98 °C
9 | O=c1[nH]cc(Cc2ccncc2)c2ccccc12 | 189 to 190 °C
10 | COC(=O)NNC(=O)CCC1CCCCC1 | 113 °C
11 | Cc1ccc(Oc2ccccc2C(=N)NN)c(O)c1 | > 260 °C
12 | NCCCn1c(-c2ccc(-c3ccccc3)cc2)csc1=Nc1ccccc1 | 50 to 54 °C
13 | Nc1c(CCO)cccc1C(O)c1ccccc1 (stereo not given) | 101 °C
14 | CCN(Cc1ccccc1Oc1ccccc1)c1ccc(C(=O)O)cn1 | 170 to 172 °C
15 | CCSc1cc(C)nc(SCC)c1NC(=O)CCCCCCCCSc1nc2ccccc2s1 | 88 to 92 °C
16 | CC(C)(C)Cn1c(=O)c(=O)[nH]c2cc(Cl)c([N+](=O)[O-])cc21 | 270 to 271 °C
17 | c1ccc(-c2ccc(-c3nc(-c4ccc(-c5ccccc5)cc4)nc(-c4ccc(-c5ccccc5)cc4)n3)cc2)cc1 | 283 °C
18 | Cc1cc(O)c(I)cc1C(=O)O | 143 to 150 °C
19 | Cc1c(NC(=O)CC(C)(C)C)cc2c(c1C)OC(C)(C)C2(O)c1cccc(C(C)O)c1 (stereo not given) | 206 to 207 °C
20 | Cc1cc(=O)n2cccc(OCc3ccccc3C(F)(F)F)c2n1 | 130 to 132 °C

Row | SMILES | melting point
21 | CCC1(C)C(=O)c2c(cc(OCC(=O)O)c(Cl)c2Cl)C1c1ccccc1 (stereo not given) | 192 °C
22 | CCOC(=O)CNC(=O)c1cccs1 | 82 to 83 °C
23 | COC(=O)C1=C(CO)NC(C)=C(C(=O)OCC(C)(C)C)C1c1ccccc1C#N (stereo not given) | 178 to 180 °C
24 | Nc1nc(C2CCCCN2)ncc1-c1ccc(Cl)cc1Cl (stereo not given) | 169 °C
25 | CCOC(=O)COc1ccc([N+](=O)[O-])cc1Cl | 73 to 74 °C
26 | O=c1cc(-c2ccccc2)c2cc(C(c3ccccc3)n3ccnc3)ccc2[nH]1 (stereo not given) | 253 °C
27 | CN(C)c1ccc2c(c1)SSSSS2 | 122 °C
28 | Cc1cc(C)c(N)c(C(N)=O)c1 | 162 to 167 °C
29 | O=C1CNc2cc(Br)c(Cl)cc2N1 | 230 to 232 °C
30 | COc1ncc(Cl)cc1Br | 45 to 47.5 °C
31 | CNC(=O)Oc1cc(C)c(NC(=O)COC)cc1C | 168 to 170 °C
32 | O=C(O)c1ccc(-c2nnc3n2-c2cccnc2Nc2ccccc2-3)cc1 | > 300 °C
33 | Nc1ncc(-c2cccc(Cl)c2Cl)c(N)n1 | 208 to 211 °C
34 | Nc1ccc(-c2nc(C(=O)Nc3nccs3)c(-c3ccc(C(F)(F)F)cc3)[nH]2)cc1 | 175 to 177 °C
35 | Cc1ccccc1-c1ccc(Cl)cc1C#N | 62 to 65 °C
36 | COc1ccc2c(c1)[C@H]1CN(C)CC[C@@H]1CC2=O (relative stereo) | > 250 °C
37 | CN(C)CCOc1nc(NCc2cccs2)nc(Nc2cccc(C(F)(F)F)c2)n1 | 51 to 53 °C
38 | Cc1ccc(CNCCOc2cccc3[nH]c(=S)[nH]c23)cc1 | > 250 °C
39 | CCOc1ccc(-c2ncc(C#N)c(Cl)n2)cc1 | 191 to 192 °C
40 | CC(C)CN1C(=O)COc2cc(F)c([N+](=O)[O-])cc21 | 108 to 110 °C

Row | SMILES | melting point
41 | N#Cc1cc(C(=O)NNC(=O)c2occ(-c3ccncc3)c2-c2ccccc2)ccc1O | 179 to 181 °C
42 | CC(C)C1=C(C#N)C(c2cccc(C#N)c2Br)c2c[nH]nc2N1 (stereo not given) | > 250 °C
43 | Cc1cc(C2=CO[C@@](c3cc(Cl)cc(Cl)c3)(C(F)(F)F)C2)ccc1C(=O)NC1CS(=O)(=O)C1 | 90 to 105 °C
44 | CN1C(=O)[C@H](NC(=O)c2cc3ccccc3[nH]2)N=C(c2ccccc2)c2ccccc21 | 167 to 177 °C
45 | CCOC(=O)c1c(O)c2ccccc2[nH]c1=O | 173 °C
46 | C[C@@H]1O[C@](C#Cc2ccoc2)(C(F)(F)F)c2cc(Cl)ccc2NC1=O (relative stereo) | 214 to 215 °C
47 | CCCCCCCCCCCCCCOc1ccc(CC(=O)Nc2ccc(CBr)cc2)cc1 | 110 to 115 °C
48 | COC1=C(OC)C(=O)C(CCCCCCCCCO)=C(C)C1=O | 45 °C
49 | COc1ccc(C(=C/C=C/C(=O)NCCCc2cccc3ccncc23)c2ccc(OC)cc2)cc1 | 115 to 118 °C
50 | COc1cc2c3c(c1O)C1(C=CC(=O)C=C1)CC3N(C)CC2 (stereo not given) | 225 °C
51 | Cc1c(C)c2c(c(C)c1OCc1ccccn1)C(c1ccc(C(C)C)cc1)C(C)(C)O2 (stereo not given) | 88 to 89 °C
52 | FC(F)Oc1ccc(-c2nc3ccc(OC(F)(F)F)cc3[nH]2)cc1 | 185 to 187 °C
53 | CCCCCCCCCCCCC(C)COc1ccc(C(=O)O)o1 (stereo not given) | 88 to 90 °C
54 | CCCCNC(=O)Oc1ccc(Oc2ccc(C(C)(C)C)cc2)cc1 | 78 to 80 °C
55 | CCOCc1nc2c(N)nc3ccccc3c2n1CCOCCCS(=O)(=O)N(C)C | 61 to 64 °C
56 | NS(=O)(=O)C12CC3CC(CC(C3)C1)C2 | 191 to 193 °C
57 | CCON=Cc1cc(-n2c(=O)cc(C(F)(F)F)n(C)c2=O)c(Cl)cc1Cl | 140 to 143 °C
58 | CN1C(=O)C(c2ccc(OC(F)F)cc2)(c2cccc(COCCF)c2)N=C1N (stereo not given) | 40 to 43 °C
59 | COc1cc2c(cc1C(F)(F)F)N(C(=O)Nc1cncc(-c3c(F)cccc3F)c1)CC2 | 217 to 219 °C
60 | Cc1ccc2c3c(ccc2n1)OCC(CN1C2CCC1CC(O)(c1ccc4ccccc4c1)C2)O3 (stereo not given) | 218 °C

Second part, the compound after the results:

Row | melting point | SMILES
61 | 224 to 225 °C | O=C1NC(C(Cl)(Cl)Cl)Nc2ccc(I)cc21 (stereo not given)
62 | 208 to 209 °C | CC(C)(C)OC(=O)N1CCC(O)(c2ccc(Oc3ccc(NC(=O)c4ccc(Cl)c(Cl)c4)cc3)cc2)CC1
63 | 151 to 153 °C | O=c1oc(-c2ccccc2)nc2cccc(Cl)c12
64 | 147 to 149 °C | CC(C)Nc1cccnc1N1CCN(C(=O)c2ccc(C(=O)NC(CO)CO)cc2)CC1
65 | 97 °C | CC(=O)N1CCC(c2ccccc2)c2cccc(CCN3CCN(c4nsc5ccccc45)CC3)c21 (stereo not given)
66 | 80 to 82 °C | CNC(=O)CCC(=O)c1ccccc1
67 | 207 to 209 °C | COc1cccc(C(=O)Nc2ccc(N3CCN(CC(N)=O)CC3)cc2)c1-c1ccc(C(C)C)cc1
68 | 151 to 153 °C | O=C1c2ccccc2C(=O)N1CCOc1ccc([N+](=O)[O-])cc1
69 | 260 to 262 °C | COc1cc2c(Nc3ccc(Sc4nccn4C)c(Cl)c3)c(C#N)cnc2cc1-c1ccc(CN2CCOCC2)cc1
70 | 72 to 74 °C | CCOC(=O)C(=O)N1CCC(Cc2ccc(F)cc2)CC1
71 | 124 to 126 °C | CCCCOCCOc1ccc(-c2ccc(N3CCCCCC3)c(C=C(C)C(=O)O)c2)cc1
72 | 250 to 251 °C | Cc1ccc(-c2ccc3c(c2)C=C(C(=O)Nc2ccc(CS(=O)(=O)C4CCCCC4)cc2)CCO3)cc1
73 | 192 to 194 °C | CS(=O)(=O)c1ccc(N2CCC3(CC2)OCCO3)cc1
74 | 170 to 172 °C | COc1ccc(CNS(=O)(=O)c2ccc(C(CC3CCCC3)C(=O)Nc3nc4ccc(OC)nc4s3)cc2)cc1 (stereo not given)
75 | 160 to 161 °C | Cc1ccc(C2(O)CCN(CCCc3nnc4n3CCCCC4)CC2)cc1
76 | > 150 °C | CC(C)(C)c1ccc(-c2snnc2S)cc1
77 | 158 to 159 °C | O=C1CCS(=O)(=O)C(CC(=O)c2ccccc2)C1 (stereo not given)
78 | 156 to 159 °C | CCOC(=O)c1ccc(NC(=O)C=C(c2ccc(OC)cc2)c2ccc(OC)cc2)cc1
79 | 155 to 156 °C | CN1CC(CCN2CCN(c3ccc([N+](=O)[O-])cc3)CC2)OC1=O (stereo not given)
80 | > 200 °C | Cc1ccc(S(=O)(=O)N2CCC[C@H]2C(=O)N[C@@H](CCCCN)C(=O)O)cc1 (Tos-Pro-Lys-OH)

Row | melting point | SMILES
81 | 190 °C | COC(=O)C(=CN(C)C)N(C)c1cc(-c2ccc(Cl)cc2)on1
82 | 133 to 134 °C | COC(=O)c1ccc(OCCc2nc(-c3ccccc3)oc2C)cc1O
83 | 259 to 260 °C | COc1cc(C(=O)O)ccc1Cn1ccc2ccc(NC(=O)CC3CCCC3)cc21
84 | 158 to 159 °C | O=C(c1ccc(F)cc1)C1CCN(C(=O)Cc2ccc(OCc3ccccc3)cc2OCc2ccccc2)CC1
85 | 187 to 189 °C | O=c1[nH]nc(-c2ccc(N3CCCCCC3)c([N+](=O)[O-])c2)c2ccccc12
86 | 91 °C | O=S(=O)(Nc1ccc(I)cc1)N1CCOCC1
87 | 338 to 340 °C | COC(=O)NC(=O)Nc1nc2ccccc2s1
88 | 174 to 175 °C | O=C1c2cccc3cccc(c23)C(O)N1CCN1CCN(c2ccccn2)CC1 (stereo not given)
89 | 228 to 231 °C | O=C1N(Cc2cc(F)ccn2)c2ccccc2C12COc1cc3c(cc12)OCCO3 (stereo not given)
90 | 310 to 313 °C | Cc1c2c(c(-c3ccc4c(c3)OCO4)c3c4c(ccc13)OCO4)C(=O)NC2=O
91 | 65 to 67 °C | COc1cccc(CCCNC(=O)C2CC2)c1
92 | 206 to 208 °C | Cc1nc(N2CCCC(=Cc3cccnc3)C2=O)sc1C(=O)NCc1ccccc1
93 | 172 to 174 °C | COc1ccc(CNc2nnc(N3CCC(O)CC3)c3ccc(C#N)cc23)cc1Cl
94 | 107 to 109 °C | COC(=O)[C@@H]1[C@H](/C=C/c2ccccc2)N1S(=O)c1ccc(C)cc1 (stereo not given in full)
95 | 152 to 154 °C | CC1=C(Cl)C(=O)c2ccccc2C1=O
96 | 55 to 60 °C | CC(C)(CS(=O)(=O)c1ccc(Cl)cc1)C(=O)C(Oc1ccc(Cl)cc1)n1cncn1 (stereo not given)
97 | > 250 °C | O=C1CN(c2ccc(OC(F)(F)C(F)F)cc2)C(=O)CN1
98 | 118 to 120 °C | COc1ccccc1OCC1SCCN1S(C)(=O)=O (stereo not given)
99 | 131 to 132 °C | CS(=O)(=O)c1ccc(-c2cnn(CCC(F)=C(F)F)c(=O)c2-c2ccc(F)cc2)cc1
100 | 241 to 242 °C | Cn1cc(C(=O)NCc2ccc(Cl)cc2)c(=O)c2cc(CCl)ccc21
